Source: PubChem BioAssay (NCI)
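These data come from cells grown in 96-well plates and exposed to compound for 48 hours at five concentrations. Here, GI50 denotes the concentration required for 50% inhibition of growth. TGI denotes the concentration required for complete inhibition of growth.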

Tests used:
Assay in all cases: NCI tumour cell line growth inhibition, 48 h
[1] = tested on: SK-MEL-5 melanoma
[2] = tested on: A498 renal
[3] = tested on: SF-539 CNS
[4] = tested on: NCI-H522 lung
[5] = tested on: SK-MEL-28 melanoma
[6] = tested on: OVCAR-5 ovarian
[7] = tested on: HCC-2998 colon
[8] = tested on: LOX IMVI melanoma
[9] = tested on: PC-3 prostate
[10] = tested on: NCI-H23 lung
[11] = tested on: OVCAR-3 ovarian
[12] = tested on: SR leukemia
[13] = tested on: A549 NSCLC
[14] = tested on: RXF 393 renal
[15] = tested on: UACC-257 melanoma
[16] = tested on: TK-10 renal
[17] = tested on: NCI-H460 lung
[18] = tested on: SN12C renal
[19] = tested on: MDA-MB-435
[20] = tested on: HCT-15 colon
[21] = tested on: EKVX NSCLC
[22] = tested on: SNB-75 CNS
[23] = tested on: IGROV1 ovarian
[24] = tested on: NCI/ADR-RES ovarian
[25] = tested on: SW-620 colon
[26] = tested on: U251 CNS
[27] = tested on: MALME-3M melanoma
[28] = tested on: HT29 colon
[29] = tested on: HCT-116 colon
[30] = tested on: CAKI-1 renal
[31] = tested on: UACC-62 melanoma
[32] = tested on: NCI-H226 lung
[33] = tested on: HL-60(TB) leukemia
[34] = tested on: SF-268 CNS
[35] = tested on: OVCAR-8 ovarian
[36] = tested on: M14 melanoma
[37] = tested on: SNB-19 CNS
[38] = tested on: BT-549 breast
[39] = tested on: KM12 colon
[40] = tested on: ACHN renal
[41] = tested on: HS 578T breast
[42] = tested on: UO-31 renal
[43] = tested on: T-47D breast
[44] = tested on: SK-MEL-2 melanoma
[45] = tested on: MCF7 breast
[46] = tested on: K-562 leukemia
[47] = tested on: HOP-62 NSCLC
[48] = tested on: SF-295 CNS
[49] = tested on: MDA-MB-231 breast
[50] = tested on: SK-OV-3 ovarian
[51] = tested on: 786-0 renal
[52] = tested on: HOP-92 NSCLC
[53] = tested on: RPMI-8226 leukemia
[54] = tested on: MOLT-4 leukemia
[55] = tested on: COLO 205 colon
[56] = tested on: CCRF-CEM leukemia
[57] = tested on: OVCAR-4 ovarian

COc1cc(/C=C2\C(=O)N(C)c3ccccc32)cc(OC)c1OC
GI50 [1]: 10.1 µM
TGI [1]: 27.8 µM
GI50 [2]: 33 µM
TGI [2]: > 100 µM
GI50 [3]: 19.7 µM
TGI [3]: > 100 µM
GI50 [4]: 11.2 µM
TGI [4]: 37.8 µM
GI50 [5]: 16 µM
TGI [5]: 44.4 µM
GI50 [6]: 25.2 µM
TGI [6]: 70.2 µM
GI50 [7]: 19 µM
TGI [7]: 44.4 µM
GI50 [8]: 11.1 µM
TGI [8]: 26.7 µM
GI50 [9]: 10.5 µM
TGI [9]: > 100 µM
GI50 [10]: 21.2 µM
TGI [10]: 73.1 µM
GI50 [11]: 21.3 µM
TGI [11]: 76.9 µM
GI50 [12]: 6.26 µM
TGI [12]: 39.7 µM
GI50 [13]: 26.3 µM
TGI [13]: > 100 µM
GI50 [14]: 0.206 µM
TGI [14]: 5.75 µM
GI50 [15]: 21.4 µM
TGI [15]: 55 µM
GI50 [16]: 31.1 µM
TGI [16]: > 100 µM
GI50 [17]: 10.8 µM
TGI [17]: 64.1 µM
GI50 [18]: 17 µM
TGI [18]: 69.5 µM
GI50 [19]: 5.02 µM
TGI [19]: 45.4 µM
GI50 [20]: 10.3 µM
TGI [20]: 85.5 µM
GI50 [21]: 24.3 µM
TGI [21]: > 100 µM
GI50 [22]: 11.5 µM
TGI [22]: 70 µM
GI50 [23]: 7.52 µM
TGI [23]: 53.4 µM
GI50 [24]: 13.7 µM
TGI [24]: 56.7 µM
GI50 [25]: 13.4 µM
TGI [25]: > 100 µM
GI50 [26]: 7.49 µM
TGI [26]: 41.7 µM
GI50 [27]: 82.7 µM
TGI [27]: > 100 µM
GI50 [28]: 14.7 µM
TGI [28]: > 100 µM
GI50 [29]: 11 µM
TGI [29]: 30.7 µM
GI50 [30]: 17.1 µM
TGI [30]: 80.9 µM
GI50 [31]: 12 µM
TGI [31]: 32.1 µM
GI50 [32]: 19.1 µM
TGI [32]: 52.4 µM
GI50 [33]: 7.26 µM
TGI [33]: > 100 µM
GI50 [34]: 0.793 µM
TGI [34]: > 100 µM
GI50 [35]: 22.7 µM
TGI [35]: 95.2 µM
GI50 [36]: 16.8 µM
TGI [36]: 46.9 µM
GI50 [37]: 24.7 µM
TGI [37]: > 100 µM
GI50 [38]: 33.4 µM
TGI [38]: > 100 µM
GI50 [39]: 11.2 µM
TGI [39]: 30.1 µM
GI50 [40]: 14.7 µM
TGI [40]: 62.8 µM
GI50 [41]: 27.4 µM
TGI [41]: > 100 µM
GI50 [42]: 22.7 µM
TGI [42]: > 100 µM
GI50 [43]: 58 µM
TGI [43]: > 100 µM
GI50 [44]: 14.3 µM
TGI [44]: 45.8 µM
GI50 [45]: 20.3 µM
TGI [45]: > 100 µM
GI50 [46]: 5.02 µM
TGI [46]: > 100 µM
GI50 [47]: 20.2 µM
TGI [47]: 54 µM
GI50 [48]: 22.1 µM
TGI [48]: > 100 µM
GI50 [49]: 14.2 µM
TGI [49]: 68.4 µM
GI50 [50]: 20.9 µM
TGI [50]: > 100 µM
GI50 [51]: 25.3 µM
TGI [51]: 97.4 µM
GI50 [52]: 15.9 µM
TGI [52]: 70.6 µM
GI50 [53]: 9.67 µM
TGI [53]: 49.1 µM
GI50 [54]: 12 µM
TGI [54]: 74.3 µM
GI50 [55]: 17.7 µM
TGI [55]: > 100 µM
GI50 [56]: 5.42 µM
TGI [56]: 87.9 µM
GI50 [57]: 18.6 µM
TGI [57]: > 100 µM
